Source: patent publication US7087643B2, “Carbamate compounds for use in preventing or treating neuropathic pain and cluster and migraine headache-associated pain” (Ortho-McNeil Pharmaceutical Inc., priority 2001, dated 2006)

Legend:
[1] = system: L5 spinal nerve ligated rats (mechanical allodynia, Chung model of neuropathic pain); assay: Antiallodynic activity, Chung model, manually applied von Frey probes; type: in vivo, rat (Sprague-Dawley); details: for % Maximum Possible Effect: time of peak effect
Method: (§1) The procedure used to test the antiallodynic activity of a compound of Formula (I) was the procedure for the measurement of allodynia found in the Chung Model (Kim S. H. and Chung J. M., An Experimental Model for Peripheral Neuropathy Produced by Segmental Spinal Nerve Ligation in the Rat, Pain, 1992, 50, 355–363).
Pathogen-free, male albino Sprague-Dawley rats, 200 g, were purchased from Harlan Industries (Indianapolis, Ind.) and maintained on a 12-h light/dark cycle (lights on at 06:00 h) in a climate-controlled room with food and water available ad libitum up to the time of the testing and food withdrawn 18 hr prior to testing.
The rats were anesthetized with isoflurane inhalant anesthesia. The left lumbar spinal nerve at the level of L5 was tightly ligated (4-0 silk suture) distal to the dorsal root ganglion and prior to entrance into the sciatic nerve, as described by Kim and Chung. The incisions were closed and the rats were allowed to recover under conditions described above. This procedure results in mechanical allodynia in the left hind paw. The sham operation, when performed, consisted of a similar surgical procedure lacking only the final ligation of the spinal nerve. Mechanical (tactile) allodynia was assessed by recording the pressure at which the affected paw (ipsilateral to the site of nerve injury) was withdrawn from graded stimuli (von Frey filaments ranging from 4.0 to 148.1 mN) applied by hand perpendicularly to the plantar surface of the paw (between the footpads) through wire-mesh observation cages. A paw withdrawal threshold (PWT) was determined by sequentially increasing and decreasing the stimulus strength and analyzing withdrawal data using a Dixon non-parametric test, as described by Chaplan et al (Chaplan S. R., Bach F. W., Pogrel J. W., Chung J. M. and Yaksh T. L., Quantitative Assessment of Tactile Allodynia in the Rat Paw, J Neurosci Meth, 1994, 53, 55–63). Normal rats, sham operated rats, and the contralateral paw of L5 ligated rats withstand at least 148.1 mN (equivalent to 15 g) of pressure without responding. […]

[2] = system: L5 and L6 spinal nerve ligated rats (mechanical allodynia); assay: Antiallodynic activity, Chung model, electronic Von Frey probes; type: in vivo, rat (Rj: Wistar (Han)); details: for % Change (force required to induce paw-withdrawal vs controls): ligatured paw
Description: as §1
Pathogen-free, male Rj: Wistar (Han) rats (300–380 g) were purchased from Elevage Janvier, 53940 Le Genest-Saint-Isle, France. The animals were maintained on a 12-h light/dark cycle (lights on from 7:00–19:00) in a controlled ambient temperature of 21±1° C., and relative humidity maintained at 40–70%. The animals had free access to food (UAR 113) and tap water until tested.
Rats were anesthetized (sodium pentobarbital 40 mg/kg i.p.). A ligature was tied tightly around the left L5 and L6 spinal nerves. The rats received an i.m. injection of 50 000 IU Penicillin (Diamant®) and were allowed to recover. This procedure results in mechanical allodynia in the left hind paw. Two weeks after the surgery, when the allodynic state was fully developed, rats were submitted consecutively to tactile stimulation of both the non-lesioned and the lesioned hindpaws.
The animals were placed on an elevated grid floor in Plexiglass boxes (19×11.5×13 cm). The tip of an electronic Von Frey probe (Bioseb, Model 1610) was then applied with increasing pressure to the lesioned and non-lesioned hindpaws and the force required to induce paw-withdrawal was automatically recorded. Prior to receiving drug treatment all animals were submitted to tactile stimulation and assigned to treatment groups matched on the basis of their pain response. This procedure was carried out 3 times for each paw and the mean paw force was calculated to provide basic scores per animal. Data were expressed as percent change (means±SEM) of effectiveness from the controls. Statistical analysis was done using non-paired and paired Student's t tests.
As summarized in Table 2 below, the enantiomer of Formula (Ic) was evaluated at the doses 10, 30 and 100 mg/kg (n=8), administered p.o. in a volume of 5 mL/kg. Morphine ([…]) was used as reference substance. Control animals received a p.o. administration of vehicle. The test was performed blind 30, 60 and 90 minutes after drug administration.

| SMILES | % Maximum Possible Effect ([1]; 30 mg/Kg po, 30 minutes after oral dosing, n=5) | % Maximum Possible Effect ([1]; 100 mg/Kg po, 30 to 60 minutes after oral dosing, n=10) | Duration of antiallodynic response ([1]; 30 and 100 mg/Kg po, responses measured at 0.5, 1, 2 and 4 hours post dosing) | % Change (force required to induce paw-withdrawal vs controls) ([2]; 10 mg/kg p.o., 60 minute post-dosing, n=8) | % Change (force required to induce paw-withdrawal vs controls) ([2]; 30 mg/kg p.o., 60 minute post-dosing, n=8) | % Change (force required to induce paw-withdrawal vs controls) ([2]; 100 mg/kg p.o., 60 minute post-dosing, n=8) | Effect on non-ligatured paw withdrawal force ([2]; 10, 30 and 100 mg/Kg p.o., 60 minute post-dosing) | Anti-allodynic effect at 90 minutes post-dosing ([2]; 10, 30 and 100 mg/Kg p.o., 90 minutes post-dosing) | % Change (force required to induce paw-withdrawal vs controls) ([2]; 128 mg/Kg morphine positive control) |
| --- | --- | --- | --- | --- | --- | --- | --- | --- | --- |
| NC(=O)OC[C@H](OC(N)=O)c1ccccc1Cl [Formula (Ic)] | 0% | 25.7% | responses returned to baseline by one hour | 69% | 115% | 88% | without affecting the non-ligatured paw | no longer present by 90 minutes post-dosing | – |
| CN1CC[C@]23c4c5ccc(O)c4O[C@H]2[C@@H](O)C=C[C@H]3[C@H]1C5 [morphine, reference compound] | – | – | – | – | – | – | – | – | 38% |
